This data set is described as follows: Particle size (D90) of lemborexant active pharmaceutical ingredient by laser diffraction/scattering. To be noted: for Particle size (D90 (μm)): pulverized lemborexant API lots, Table 1; for D90 (μm): after pulverization with 160UPZ (Example 1, Table 2), Microtrack MT3300EXII. Format: physicochemical. As for the experimental part: The particle size of the granular material, which is a lemborexant active pharmaceutical ingredient, can be measured by a laser diffraction/scattering method.
A sample suspension is prepared by dispersing about 30 mg of a lemborexant active pharmaceutical ingredient in 50 mL of a 0.1% polysorbate 20 aqueous solution as a dispersion solvent. The sample suspension is put into a diffractometer and an appropriate amount of dispersion solvent is added. The particle size distribution of the sample suspension is measured, and the value of the particle size of the sample is recorded as a cumulative diameter distribution.
Particle size distribution measurement conditions for the diffractometer may be as follows.
Number of measurements: 3 times
Measurement time: 30 seconds
Transparency: Transparent
Particle refractive index: 1.81
Solvent refractive index: 1.33
The 90% cumulative diameter (D90) was measured with a particle size analyzer (Microtrack MT3300EXII). A sample suspension was prepared by dispersing about 30 mg of a lemborexant active pharmaceutical ingredient in 50 mL of a dispersion solvent 0.1% polysorbate 20 aqueous solution. The sample suspension was put into a particle size analyzer, and an appropriate amount of a dispersion solvent was added thereto. The particle size distribution of the sample suspension was measured, and the value of the particle size of the sample was recorded as a cumulative diameter distribution.
The measurement conditions for the particle size analyzer are as follows.
Flow rate: 50% Number of measurements: 3 times Measurement time: 30 seconds
Particle refractive index: 1.81 Solvent refractive index: 1.33

The values below come from patent US20230103250A1, “DRUG SUBSTANCE OF L[…] MEDICINAL COMPOSITION COMPRISING SAME” (Eisai R&D Management Co., Ltd., priority 2020, published 2023).

Each structure is given as a SMILES string.

With `Cc1ncc(OC[C@@]2(c3cccc(F)c3)C[C@H]2C(=O)Nc2ccc(F)cn2)c(C)n1` [Lot 7], the “Particle size (D90 (μm))” value (listed as 7) worked out at 40 μm.

Regarding `Cc1ncc(OC[C@@]2(c3cccc(F)c3)C[C@H]2C(=O)Nc2ccc(F)cn2)c(C)n1` [Lot S4], for the setting “listed as S4”, the “D90 (μm)” value was determined as 56 μm.

For `Cc1ncc(OC[C@@]2(c3cccc(F)c3)C[C@H]2C(=O)Nc2ccc(F)cn2)c(C)n1` [Lot S3], the “D90 (μm)” value (listed as S3) came out at 64 μm.

Turning to `Cc1ncc(OC[C@@]2(c3cccc(F)c3)C[C@H]2C(=O)Nc2ccc(F)cn2)c(C)n1` [Lot 5], for the setting “listed as 5”, the “Particle size (D90 (μm))” value is given as 39 μm.

Consider `Cc1ncc(OC[C@@]2(c3cccc(F)c3)C[C@H]2C(=O)Nc2ccc(F)cn2)c(C)n1` [Lot 4], for which, where the note is “listed as 4”, the “Particle size (D90 (μm))” value turned out to be 32 μm.

In the case of `Cc1ncc(OC[C@@]2(c3cccc(F)c3)C[C@H]2C(=O)Nc2ccc(F)cn2)c(C)n1` [Lot S6], the “D90 (μm)” value (listed as S6) is 20 μm.

Regarding `Cc1ncc(OC[C@@]2(c3cccc(F)c3)C[C@H]2C(=O)Nc2ccc(F)cn2)c(C)n1` [Lot 3], under “listed as 3”, the “Particle size (D90 (μm))” value is 48 μm.

With `Cc1ncc(OC[C@@]2(c3cccc(F)c3)C[C@H]2C(=O)Nc2ccc(F)cn2)c(C)n1` [Lot 9], the “Particle size (D90 (μm))” value (listed as 9) worked out at 34 μm.

In the case of `Cc1ncc(OC[C@@]2(c3cccc(F)c3)C[C@H]2C(=O)Nc2ccc(F)cn2)c(C)n1` [Lot S5], the “D90 (μm)” value (listed as S5) is 110 μm.

For the compound `Cc1ncc(OC[C@@]2(c3cccc(F)c3)C[C@H]2C(=O)Nc2ccc(F)cn2)c(C)n1` [Lot S1], where the note is “listed as S1”, the “D90 (μm)” value came to 98 μm.

With `Cc1ncc(OC[C@@]2(c3cccc(F)c3)C[C@H]2C(=O)Nc2ccc(F)cn2)c(C)n1` [Lot 1], the “Particle size (D90 (μm))” value (listed as 1) is listed as 47 μm.

`Cc1ncc(OC[C@@]2(c3cccc(F)c3)C[C@H]2C(=O)Nc2ccc(F)cn2)c(C)n1` [lemborexant, (1R,2S)-2-(((2,4-dimethylpyrimidine-5-yl)oxy)methyl)-2-(3-fluorophenyl)-N-(5-fluoropyridin-2-yl)cyclopropanecarboxamide] gave a D90 (API used for the tablets of Example 4) of 32 μm.

For `Cc1ncc(OC[C@@]2(c3cccc(F)c3)C[C@H]2C(=O)Nc2ccc(F)cn2)c(C)n1` [Lot 6], under “listed as 6”, the “Particle size (D90 (μm))” value is 23 μm.

As for `Cc1ncc(OC[C@@]2(c3cccc(F)c3)C[C@H]2C(=O)Nc2ccc(F)cn2)c(C)n1` [Lot S2], the “D90 (μm)” value (listed as S2) is 79 μm.

As to `Cc1ncc(OC[C@@]2(c3cccc(F)c3)C[C@H]2C(=O)Nc2ccc(F)cn2)c(C)n1` [Lot 2], for the setting “listed as 2”, the “Particle size (D90 (μm))” value is on record as 18 μm.

Take `Cc1ncc(OC[C@@]2(c3cccc(F)c3)C[C@H]2C(=O)Nc2ccc(F)cn2)c(C)n1` [Lot 8]: under “listed as 8”, the “Particle size (D90 (μm))” value came to 35 μm.
